Experimental data as given in US8350027B2, “Dual-acting pyrazole antihypertensive agents” (Theravance, Inc., priority 2009, dated 2013).

How the values were obtained:
human AT1 receptor = target: T1, human AT1 receptor (Homo sapiens, UniProt P30556); assay: AT1 radioligand binding assay (displacement of [Eu]AngII); details: membranes of CHO-K1 cells expressing cloned human AT1 receptor; values given as lower bounds; read-out: AT1 pKi (converted)
T1 construct: expressed in transfected cells; host or cells: CHO-K1
T1 sequence (P30556 1-359): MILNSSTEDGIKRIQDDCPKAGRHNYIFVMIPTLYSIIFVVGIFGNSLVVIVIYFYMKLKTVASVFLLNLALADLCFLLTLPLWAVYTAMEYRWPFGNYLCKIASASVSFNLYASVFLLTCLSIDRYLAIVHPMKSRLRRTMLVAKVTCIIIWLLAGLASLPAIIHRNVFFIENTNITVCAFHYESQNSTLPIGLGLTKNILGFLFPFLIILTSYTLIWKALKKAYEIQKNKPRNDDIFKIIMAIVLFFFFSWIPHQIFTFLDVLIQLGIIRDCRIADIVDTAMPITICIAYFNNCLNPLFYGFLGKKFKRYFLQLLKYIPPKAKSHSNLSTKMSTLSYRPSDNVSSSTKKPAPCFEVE
Procedure, shortened: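 Membranes from CHO-K1 cells stably expressing cloned human AT1, 0.2 μg protein, in 50 mM Tris/HCl pH 7.5, 5 mM MgCl2, 0.025% BSA. Compounds displaced [Eu]AngII over 120 min in the dark at room temperature or 37° C; filter-bound TRF read. Nonspecific binding with 10 μM angiotensin II; IC50 converted to Ki via Cheng-Prusoff, reported as pKi.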

NEP enzyme = target: T2, NEP enzyme (Homo sapiens, UniProt P08473); assay: NEP enzyme inhibition assay (fluorogenic peptide substrate); type: biochemical; details: values given as lower bounds; * = prodrugs, may not exhibit NEP activity in an in vitro assay; read-out: NEP pIC50 (converted)
T2 construct: purchased R&D Systems, Minneapolis, Minn; 1182-ZN
T2 sequence (P08473 52-750 limits assumed): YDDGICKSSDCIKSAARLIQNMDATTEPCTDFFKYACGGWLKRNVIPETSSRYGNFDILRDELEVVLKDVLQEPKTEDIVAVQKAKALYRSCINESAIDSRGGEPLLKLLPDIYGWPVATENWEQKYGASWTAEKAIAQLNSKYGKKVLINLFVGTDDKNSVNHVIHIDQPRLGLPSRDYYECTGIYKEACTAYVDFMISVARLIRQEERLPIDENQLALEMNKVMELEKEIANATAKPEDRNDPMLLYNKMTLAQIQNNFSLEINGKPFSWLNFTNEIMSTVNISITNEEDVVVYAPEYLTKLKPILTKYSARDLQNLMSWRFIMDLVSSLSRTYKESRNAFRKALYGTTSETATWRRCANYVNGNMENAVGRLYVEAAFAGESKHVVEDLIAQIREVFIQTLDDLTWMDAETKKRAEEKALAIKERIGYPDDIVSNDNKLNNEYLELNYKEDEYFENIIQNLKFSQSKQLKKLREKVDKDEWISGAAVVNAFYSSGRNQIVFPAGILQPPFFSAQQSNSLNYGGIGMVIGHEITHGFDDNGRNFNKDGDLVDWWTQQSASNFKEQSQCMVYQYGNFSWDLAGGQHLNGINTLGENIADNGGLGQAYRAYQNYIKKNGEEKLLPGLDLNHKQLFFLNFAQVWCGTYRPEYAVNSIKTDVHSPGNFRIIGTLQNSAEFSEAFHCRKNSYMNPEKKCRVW
Procedure, shortened: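 Recombinant human NEP was run with Mca-BK2 (10 μM) at room temperature in Tris buffer with 1 μM Zn. Compounds (10 μM–20 pM, 12 points) were pre-equilibrated 10 min, then reacted 20 min and acid-stopped. Fluorescence ex 320/em 405 nm, one-site competition fit gives pIC50. Thiol compounds may be pre-treated with 400 μM TCEP.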

Structure (SMILES) | Ki (human AT1 receptor) [nM] | IC50 (NEP enzyme) [nM]
CCCc1cc(C(=O)N[C@H](Cc2ccccc2)[C@@H](O)C(=O)O)nn1Cc1ccc(-c2ccccc2-c2nc(=O)o[nH]2)cc1 [Example 16-2, (2R,3R)-2-Hydroxy-3-({1-[2′-(5-oxo-2,5-dihydro-[1,2,4]oxadiazol-3-yl)biphenyl-4-ylmethyl]-5-propyl-1H-pyrazole-3-carbonyl}amino)-4-phenylbutyric acid] | ≤ 10 | ≤ 1000
CCCc1cc(C(=O)N[C@H](Cc2ccccc2)[C@@H](O)C(=O)O)nn1Cc1ccc(-c2ccccc2-n2nn[nH]c2=O)cc1 [Example 16-3, (2R,3R)-2-Hydroxy-3-({1-[2′-(5-oxo-4,5-dihydrotetrazol-1-yl)-biphenyl-4-ylmethyl]-5-propyl-1H-pyrazole-3-carbonyl}amino)-4-phenylbutyric acid] | ≤ 10 | ≤ 100
CCCc1cc(C(=O)N[C@@H](CC(=O)O)Cc2ccccc2)nn1Cc1ccc(-c2ccccc2-n2nn[nH]c2=O)cc1 [Example 16-4, (R)-3-({1-[2′-(5-Oxo-4,5-dihydrotetrazol-1-yl)biphenyl-4-ylmethyl]-5-propyl-1H-pyrazole-3-carbonyl}amino)-4-phenylbutyric acid] | ≤ 10 | ≤ 1000
CCCc1cc(C(=O)N[C@@H](CC(=O)O)Cc2ccccc2Cl)nn1Cc1ccc(-c2ccccc2-n2nn[nH]c2=O)cc1 [Example 16-5, (R)-4-(2-Chlorophenyl)-3-({1-[2′-(5-oxo-4,5-dihydrotetrazol-1-yl)-biphenyl-4-ylmethyl]-5-propyl-1H-pyrazole-3-carbonyl}amino)butyric acid] | ≤ 10 | ≤ 1000
CCCc1cc(C(=O)N[C@H](Cc2ccccc2Cl)[C@@H](O)C(=O)O)nn1Cc1ccc(-c2ccccc2-n2nn[nH]c2=O)cc1 [Example 16-6, (2R,3R)-4-(2-Chlorophenyl)-2-hydroxy-3-({1-[2′-(5-oxo-4,5-dihydrotetrazol-1-yl)biphenyl-4-ylmethyl]-5-propyl-1H-pyrazole-3-carbonyl}amino)butyric acid] | ≤ 100 | ≤ 100
CCOc1cc(C(=O)N[C@H](Cc2ccccc2)[C@@H](O)C(=O)O)nn1Cc1ccc(-c2ccccc2-n2nn[nH]c2=O)cc1 [Example 16-7, (2R,3R)-3-({5-Ethoxy-1-[2′-(5-oxo-4,5-dihydrotetrazol-1-yl)-biphenyl-4-ylmethyl]-1H-pyrazole-3-carbonyl}amino)-2-hydroxy-4-phenylbutyric acid] | ≤ 10 | ≤ 100
CCCc1cc(C(=O)N[C@@H](CC(=O)O)Cc2ccccc2Cl)nn1Cc1cnc(-c2ccccc2-c2nnn[nH]2)cn1 [Example 17-2, (R)-4-(2-Chlorophenyl)-3-[(5-propyl-1-{5-[2-(1H-tetrazol-5-yl)phenyl]pyrazin-2-ylmethyl}-1H-pyrazole-3-carbonyl)amino]butyric acid] | ≤ 10 | ≤ 1000
CCCc1cc(C(=O)N[C@H](Cc2ccccc2)[C@@H](O)C(=O)O)nn1Cc1cnc(-c2ccccc2-c2nnn[nH]2)cn1 [Example 17-3, (2R,3R)-3-(1-((5-(2-(1H-tetrazol-5-yl)phenyl)pyrazin-2-yl)methyl)-5-propyl-1H-pyrazole-3-carboxamido)-2-hydroxy-4-phenylbutanoic acid] | ≤ 10 | ≤ 100
CCCc1cc(C(=O)N[C@@H](CC(=O)O)Cc2ccccc2)nn1Cc1cnc(-c2ccccc2S(=O)(=O)NC(C)=O)cn1 [Example 17-4, (R)-3-({1-[5-(2-Acetylsulfamoylphenyl)pyrazin-2-ylmethyl]-5-propyl-1H-pyrazole-3-carbonyl}amino)-4-phenylbutyric acid] | ≤ 10 | ≤ 1000
CCCc1cc(C(=O)N[C@H](Cc2ccccc2)[C@@H](O)C(=O)O)nn1Cc1cnc(-c2ccccc2S(=O)(=O)NC(C)=O)cn1 [Example 17-5, (2R,3R)-3-({1-[5-(2-Acetylsulfamoylphenyl)pyrazin-2-ylmethyl]-5-propyl-1H-pyrazole-3-carbonyl}amino)-2-hydroxy-4-phenylbutyric acid] | ≤ 100 | ≤ 100
CCCc1cc(C(=O)N[C@@H](CC(=O)O)Cc2ccccc2Cl)nn1Cc1cnc(-c2ccccc2S(=O)(=O)NC(C)=O)cn1 [Example 17-6, (R)-3-({1-[5-(2-Acetylsulfamoyl-phenyl)-pyrazin-2-ylmethyl]-5-propyl-1H-pyrazole-3-carbonyl}amino)-4-(2-chloro-phenyl)butyric acid] | ≤ 10 | ≤ 1000
CCCc1cc(C(=O)N[C@@H](CC(=O)O)Cc2ccccc2Cl)nn1Cc1cnc(-c2ccccc2-c2nnn[nH]2)nc1 [Example 18, (R)-4-(2-Chlorophenyl)-3-[(5-propyl-1-{2-[2-(1H-tetrazol-5-yl)phenyl]pyrimidin-5-ylmethyl}-1H-pyrazole-3-carbonyl)amino]butyric acid] | ≤ 100 | ≤ 1000
